From patent publication US20090305955A1, “Cyclopeptide with Anti-Cancer Activity Derived from Collagen Type IV” (priority 2006, published 2009)
Where a SMILES comes first, the peptide text is derived from it.

Columns and labels:
[1] = test system: UACC-903 human melanoma cells; experiment: In vitro proliferation test (Wst-1 reagent); type: cell-based; conditions: 48 hours
Experimental: FIG. 9: In vitro proliferation test for human melanoma cells UACC-903 in the presence of the cyclopeptide YSNSG (SEQ ID NO: 3). The UACC-903 cells were incubated for 48 hours in 24-well plates, with a control medium (negative control, white bar), a linear heptapeptide CNYYSNS (SEQ ID NO: 5) (positive control, black bar) or concentrations of cyclopeptide YSNSG (SEQ ID NO: 3) varying from 5 μM to 20 μm (grey bars).
B16F1 cells, a metastasic sub-line of B16 murine melanoma pulmonary cells (d-Dr M Grégoire, INSERM U419, Nantes, France) were cultivated in RPMI 1640 medium, supplemented with 5% foetal calf serum (FCS) in 25 cm^2 flasks (Nunclon, VWR Int, Strasbourg, France) in a humid atmosphere containing 5% CO2. UACC-903 cells, a melanoma cell line (Dr J Trent, Phoenix, Ariz.) were cultivated in DMEM medium containing 4.5 g/l glucose, supplemented with 5% FCS in 25 cm^2 flasks (Nunclon) in a moist atmosphere containing 5% CO2. HMEC-1 cells (human microvascular entothelial cells; E W Ades, Center for Disease Control and Prevention, Atlanta, Ga.) and HUVEC cells (human umbilical vein endothelial cells) were cultivated in endothelial cell growth medium (ECGM) supplemented with ECGS/H at 0.4% (by weight), 2% (by volume) foetal calf serum, epidermal growth factor (EGF) 10 ng/ml, 1 μg/ml of hydrocortisone, 50 ng/ml of amphotericin B and 50 μg/ml of gentamicin.
Cell proliferation was determined using the reagent Wst-1 following the manufacturer's instructions. This reagent contains a tetrazolium salt which is reduced by mitochondrial oxido-reductases and allows the proliferation and viability of cells to be evaluated. Its reduction gives rise to a soluble formazan derivative which is yellow in colour. Before reaching confluence, the cells were washed twice with a saline solution buffered with phosphate (phosphate buffered saline; PBS) to remove SVF residues and incubated for 48 hours in DMEM medium, in the presence or absence of synthetic peptides at concentrations of 0 to 20 μM. The medium was recovered then centrifuged at 500 g for 10 min at 4° C. to remove cell debris. The protein contents of the medium obtained was determined using Bradford's method using SAB as the reference.

UACC-903 melanoma cells = experiment: In vitro invasion/migration test (modified Boyden chambers, Matrigel); type: cell-based, human; conditions: 20 μM; 48 hours; Matrigel membranes, 10% FCS chemoattractive agent
Experimental: FIG. 10: In vitro migration test for UACC-903 human melanoma cells in the presence of the cyclopeptide YSNSG (SEQ ID NO: 3). The UACC-903 cells were incubated with a control medium (control, negative, white bar), a linear heptapeptide CNYYSNS (SEQ ID NO: 5) (positive control, black bar) or with the cyclopeptide YSNSG (SEQ ID NO: 3) at 20 μM (grey bar). After an incubation period of 48 hours, the migrated cells were stained with crystal violet and counted under reverse microscopy.
Cell invasion was tested in modified Boyden chambers (ThinCert®, a cell culture insert for 24-well plates, internal diameter 8.36 mm, 8 μm pore, Greiner Bio-one, Courtaboeuf, France). Briefly, 5×10^4 cells were suspended in DMEM medium without FCS and containing 0.2% BSA and seeded onto membranes spread with Matrigel (30 μg/cm^2). DMEM medium supplemented with 10% FCS and 2% BSA were used as the chemo-attracting agent. […] The cells remaining on the upper surface of the membranes were eliminated by scraping and those on the lower surface were counted using a reverse microscope (Pasco et al, 2000(a)). The counted cells corresponded to the cells which had crossed the Matrigel mat then the porous membrane of the Boyden chamber; they thus reflected the migration and invasion capacities of the tumour cells through an extracellular matrix or a basal membrane, reproduced in this case by the Matrigel.

TIMP-1 = experiment: Reverse zymography of TIMP secretion, UACC-903 cells; type: cell-based, human; conditions: conditioned culture medium
Experimental: (§1) FIG. 13: Effect of YSNSG (SEQ ID NO: 3) cyclopeptide on secretion of TIMP. The secretion of 3 tissue inhibitors of metalloproteinases (TIMP) was analyzed by reverse zymography (A) in a medium conditioned by control UACC-903 cells in the absence of peptide (negative control, white bar), on cells treated with the linear heptapeptide CNYYSNS (SEQ ID NO: 5) (20 μM) (positive control, black bar) or treated with cyclopeptide YSNSG (SEQ ID NO: 3) at a concentration from 5 μM to 20 μM (grey bars). The conditioned medium was recovered and analyzed as described in the methods.
(§2) The expression of MMP-2 and MMP-9 in a conditioned medium of UACC-903 cells, treated or not treated with synthetic peptides, was analyzed by zymography in the presence of gelatine as described above (Pasco et al, 2000(a)). The secretion of TIMP-2 was analyzed in a conditioned medium of UACC-903 cells by reverse zymography in the presence of gelatine, as described above (Pascal et al, 2000(a)).

TIMP-2 = experiment: as above; type: cell-based, human; conditions: cyclopeptide 5 to 20 μM, linear heptapeptide 20 μM
Experimental: as §1, §2

TIMP-3 = experiment: as above; type: cell-based, human; conditions: conditioned culture medium
Experimental: as §1, §2

t-PA = experiment: Zymography in the presence of gelatine and plasminogen, UACC-903 cells; type: cell-based, human; conditions: cyclopeptide 5 to 20 μM, linear heptapeptide 20 μM
Experimental: (§3) FIG. 14: Effect of YSNSG (SEQ ID NO: 3) cyclopeptide on the secretion of plasminogen activators. The secretion of u-PA (urokinase type plasminogen activator) and t-PA (tissue plasminogen activator) was analyzed by zymography in the presence of gelatine and plasminogen (A) in a medium conditioned by control UACC-903 cells in the absence of peptide (negative control, white bar), on cells treated with linear heptapeptide CNYYSNS (SEQ ID NO: 5) (20 μM) (positive control, black bar) or treated with the cyclopeptide YSNSG (SEQ ID NO: 3) at a concentration varying from 5 μM to 20 μM (grey bars). The conditioned medium was recovered and analyzed as described in the methods.
(§4) To determine the plasminogen activities, conditioned media of UACC-903 cells were analyzed by polyacrylamide gel electrophoresis in the presence of SDS and containing 1 mg/ml of gelatine and 10 μg/ml of plasminogen. After electrophoresis, the gels were incubated overnight at ambient temperature in a 100 mM glycine, 5 mM EDTA, pH 8.0 buffer.

u-PA = experiment: as above; type: cell-based, human; conditions: cyclopeptide 5 to 20 μM, linear heptapeptide 20 μM
Experimental: as §3, §4

Molecule | In vitro proliferation of UACC-903 human melanoma cells, change vs control ([1]; linear heptapeptide positive control, concentration not given) | reduction in the migration of UACC-903 cells (UACC-903 melanoma cells) | Secretion of TIMP-1 (TIMP-1) | secretion of TIMP-2 (TIMP-2) | Secretion of TIMP-3 (TIMP-3) | secretion of t-PA (t-PA) | secretion of u-PA (u-PA) | inhibited the proliferation of UACC-903 melanoma cells ([1]; 5 μM) | inhibited the proliferation of UACC-903 melanoma cells ([1]; 10 μM) | inhibited the proliferation of UACC-903 melanoma cells ([1]; 20 μM)
CNYYSNS (Synthetic linear heptapeptide) [linear peptide NC1 [α3(IV) 185-191], the 7 N-terminal amino acids of the 185-203 domain; positive control, reference compound] | −45% | similar | not modified | dose-dependent increase | not modified | reduction observed | reduction observed |  |  | 
NC(=O)CC1NC(=O)C(CO)NC(=O)C(Cc2ccc(O)cc2)NC(=O)CNC(=O)C(CO)NC1=O (stereo not shown) [cyclopeptide YSNSG, cyclopeptide YSNSG (SEQ ID NO: 3)] (cyclo(GYSNS); configuration not given here) |  | −47% | not modified | dose-dependent increase | not modified | dose-dependent reduction | dose-dependent reduction | 27% | 29% | 40%
